From paper PMC6858323, “Multiple conformations facilitate PilT function in the type IV pilus” (Nature Communications, 2019)

Columns and labels:
[1] = target: T1, PilT^Gm (PilT4 from Geobacter metallireducens) (Geobacter metallireducens, UniProt Q39VU6); assay: X-ray crystal structure (OCOCOC); conditions: preincubated with Mg2+ and ATP, unbound nucleotide removed, pH 7.6; nucleotide-binding site
T1 construct: gene pilT-4; hexamer; domains N2D residues 1-100, CTD 101-353

[2] = target: T1, PilT^Gm (PilT4 from Geobacter metallireducens); assay: X-ray crystal structure (anisotropic, about […] A); conditions: 2 mM ANP, 2 mM MgCl2, pH 7.9 reservoir; four of six nucleotide-binding sites, ADP in the other two; CCOCCO conformation

T1 sequence (Q39VU6 entry or part of it): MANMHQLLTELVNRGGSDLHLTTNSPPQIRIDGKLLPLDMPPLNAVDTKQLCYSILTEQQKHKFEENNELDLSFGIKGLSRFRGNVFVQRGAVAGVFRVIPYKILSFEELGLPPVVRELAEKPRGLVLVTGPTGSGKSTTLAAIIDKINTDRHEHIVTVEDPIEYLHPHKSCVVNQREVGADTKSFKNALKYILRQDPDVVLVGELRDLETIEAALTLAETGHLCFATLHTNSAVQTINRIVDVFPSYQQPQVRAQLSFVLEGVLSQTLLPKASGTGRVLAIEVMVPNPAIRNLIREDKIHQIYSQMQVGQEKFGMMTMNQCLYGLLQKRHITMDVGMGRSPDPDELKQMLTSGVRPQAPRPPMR

SMILES	X-ray crystal structure (OCOCOC) [1]	X-ray crystal structure (anisotropic, about 4.0 A) [2]
Nc1ncnc2c1ncn2[C@@H]1O[C@H](COP(=O)(O)OP(=O)(O)O)[C@@H](O)[C@H]1O [ADP]	An isomorphous structure with high ADP occupancy was obtained	
Nc1ncnc2c1ncn2[C@@H]1O[C@H](COP(=O)(O)OP(=O)(O)NP(=O)(O)O)[C@@H](O)[C@H]1O [ANP]		density consistent with ANP could be modeled into four of the six nucleotide-binding sites
